These results are taken from a melting point compilation (Tetko et al.; mined from patent text by program, amines drawn as free bases though some values may be those of a salt).

A word on the melting point: it is the temperature, or range, at which the solid turns liquid. Take `CC(C)(C)[Si](C)(C)Oc1ccc(NC(=O)CN2CCC(O)(Cc3ccccc3)CC2)cc1`: the melting point lay in the range of 105 to 108 °C.
To `COc1cc2cc(C(=O)CCC(=O)O)sc2cc1OC` belongs 177 to 178 °C; to `NC(=O)C1CCc2cc(C3CCCCCC3)c(Cl)cc21` (stereo not given), 170 to 171 °C; to `CC(=O)Nc1ccc(Cn2cnc3c(-c4ccco4)ncnc32)cc1`, 278 to 280 °C.
Take `FC(F)(F)c1cccc(-c2cc(C(F)(F)F)n3ncc(-c4ccncc4)c3n2)c1`: the melting point was found to be 241 °C.
To `O=C(Nc1cn(C2CCCCO2)nc1C(=O)NCCCO)c1ccccn1` (stereo not given) belongs 139 to 140 °C.
The value for `NC(=O)C(F)(F)C1(c2ccc(Cl)cc2Cl)CO1` (stereo not given) was 100 to 101 °C.
On to `CC(=O)c1cc(Cl)sc1SCc1ccccc1`, for which the melting point lay within 86 to 88 °C.
`Cc1cc(-n2ccnc2)c2cccc(OCc3c(Cl)ccc(S(=O)(=O)N4CCC[C@H]4C(=O)N4CCN(Cc5ccncc5)CC4)c3Cl)c2n1` registered a melting point of 108 °C.
To `COc1cccc(OC)c1C(=O)Nc1ccc(C(=O)O)cc1` belongs 236 to 240 °C; to `COC(=O)c1ccc(NC(=O)c2cc(C(C)C)c(C(C)C)s2)cc1Cl`, 153 to 154 °C.
To `CC(C)c1cccc(C(C)C)c1NC(=O)N(Cc1ccccc1)CC1(c2ncccn2)CCCCC1` belongs 112 to 114 °C; to `CCN(CCCCCC(C)O)C(=O)CCC(=O)c1ccc(NS(C)(=O)=O)cc1` (stereo not given), 78 to 80 °C.
To `CC(C)(C)OC(=O)N1CCC(C(=O)c2nc3ccccc3n2Cc2ccccc2)CC1` belongs 122 °C.
In turn, `CCOP(=O)(OCC)C(F)(F)c1ccc(CN(Cc2ccc(C(F)(F)P(=O)(OCC)OCC)cc2)C(=O)NCc2ccccc2)cc1` displayed a melting point of 124 to 127 °C.
To `O=C(O)c1cc(NCc2c(F)c(F)c(C(F)(F)F)c(F)c2F)ccc1OC(=O)C1CCCCC1` belongs 190 to 193 °C; to `NC1CCN(c2ncc3ncnc(Nc4ccc(OCc5ccccc5)cc4)c3n2)CC1`, 150 °C; to `NC(Cc1cc(Cl)ccc1CCP(=O)(O)O)C(=O)O` (stereo not given), more than 160 °C.
The value for `O=C1CCCCN1[C@@H]1c2cc(C(F)(F)F)ccc2OC(CF)(CF)[C@H]1O` (relative stereo) was 184 to 187 °C; that for `CCCCCCCCNC(=O)n1cc(F)c(=O)[nH]c1=O` was 98 to 100 °C.
The value for `CC(=O)NC[C@H]1CN(c2ccc(N3CCC4(CC3)OCCO4)cc2)C(=O)O1` was 140 to 142 °C; that for `O=C1c2cccc(NC(=S)Nc3ccccn3)c2C2CCCCN12` (stereo not given) was 195 °C; that for `N#CC(C#N)C(=O)c1ccsc1` was 132 to 133 °C.
`COC(=O)c1cccnc1SCc1cccc(OC)c1` yielded a melting point of 69 to 70 °C.
To `COc1cc(Cl)c(N=C2NCCN2OCc2ccccc2)c(Cl)c1` belongs 90 to 92 °C; to `CCOc1ccc(CNC(=O)C(=O)NCCc2ccccn2)c(OC)c1`, 117 to 118 °C.
The molecule `COc1cc2c(cc1Nc1ncc(Cl)c(Nc3ccc(N4CCOCC4)cc3OC)n1)CCN(C[C@H](O)C(F)(F)F)CC2` had a melting point of 95 to 102 °C.
For the molecule `COc1ccccc1NC(=O)c1sccc1S(=O)(=O)Nc1onc(C)c1Br`, the melting point was in the range of 74 to 80 °C.
On to `COc1ccc(NC(=O)NC2CCN(Cc3ccccc3)CC2)c(CCc2cc(C(C)(C)C)c(O)c(C(C)(C)C)c2)c1`, for which the melting point lay in the range of 174 to 175 °C.
To `COC(=O)c1ccc(OCCNC(=O)C2Cc3ccccc3N2S(=O)(=O)c2ccc(-c3cc(C(F)(F)F)ccc3Cl)cc2)cc1F` (stereo not given) belongs 84 to 85 °C; to `CN1CCN(c2ccc(S(=O)(=O)Oc3ccc(Cl)cc3)cc2)C1=O`, 165 to 168 °C; to `COc1cc(CC(=O)Nc2ccc(I)cc2)ccc1NC(=O)Nc1ccccc1C`, more than 200 °C.
To `CCc1cnc2c(NC(=O)c3c(Cl)cccc3Cl)cccc2c1CC(=O)OC` belongs 167 to 168 °C; to `CCOC(=O)C1=C(C)NC(C)=C(C(=O)OC(C)C)C1c1csc2ccncc12` (stereo not given), 212 to 215 °C; to `COC(=O)c1ccc2c(nnn2C)c1C(=O)OC`, 146 to 147 °C.
To `c1ccc(CN2CCN(c3ccnc4ccccc34)CC2)cc1` belongs 105 to 106 °C; to `Cc1cc(C#N)cnc1Oc1c(Cl)cc(NC(=O)NC(=O)c2c(Cl)cccc2Cl)cc1Cl`, 245 to 246 °C; to `NC(=O)NCc1cc2cc(CN3CCOCC3)cc3c(=O)c(C(=O)NCc4ccc(Cl)cc4)cn1c23`, 250 to 252 °C.
Take `O=C(c1ccc(Cl)cc1)c1cc(-c2cccnc2)c(N2CCOCC2)s1`: the melting point was 196 °C.
`CC#CCOc1ccc(S(=O)(=O)C(C(=O)NO)c2ccc(-c3cccs3)cc2)cc1` (stereo not given) displayed a melting point of 175 °C.
`COc1cc2c(cc1CCCCN1CCCC1)[nH]c1cc(-c3ccccc3Cl)c3c(c12)C(=O)NC3=O` displayed a melting point of 173 to 178 °C.
As to `CN1C(=O)CCC(C)(C)c2cc(NC(=O)c3ccc(C(=O)O)cc3)ccc21`, the melting point was more than 275 °C.
As to `Cc1ccnc2c1C(=O)CC(c1ccccc1Cl)C2` (stereo not given), the melting point lay within 97 to 98 °C.
`CC(C)(OCc1cc2cc(C(F)(F)F)ccc2n1S(=O)(=O)c1ccc2c(c1)OCCO2)C(=O)O`: the melting point came out at 75 °C.
The molecule `CN(Cc1ccc([N+](=O)[O-])cc1)C1CCN(c2ccc(NS(C)(=O)=O)cc2)CC1` displayed a melting point of 167 to 168 °C.
The value for `CC1(C)CS(=O)(=O)CC(C)(C)N1Br` was 150 °C.
To `C=CCC1=C(O)C(C)=CC(C)(OC(C)=O)C1C` (stereo not given) belongs 117 to 118 °C; to `CC(C)(C)[N+]([O-])=Cc1cc(Cl)cc(Cl)c1O`, 103 °C.
The value for `O=C(NC1CCCCC1)N1CCC(c2cn(C(=O)NC3CCCCC3)cn2)CC1` was 166 °C; that for `CC(C)Oc1ccc(C(CC(N)=O)N2C(=O)c3ccccc3C2=O)cc1OC(C)C` (stereo not given) was 153 to 154 °C; that for `COc1ccc(-c2cc(=O)n(Cc3ccncc3)nc2-c2ccc(OC)cc2)cc1` was 182 to 183 °C.
In turn, `CCOC(=O)c1c(N2CCNCC2)c2cc(C)ccc2n(-c2ccccc2)c1=O` returned a melting point of 181 °C.
To `Cn1ccc(S(=O)(=O)NC(C)(C)C)c1C=O` belongs 102 to 103 °C.
Consider `COc1ccc(C=CC(=O)c2ccc(O)cc2)cc1OC`, for which the melting point lay within 193 to 198 °C.
Molecule `CC(=O)c1cc(C(N)=O)c(=O)[nH]c1C` had a melting point of more than 320 °C.
To `CC(=O)N1CCC(c2ccc(S(N)(=O)=O)cc2)CC1` belongs 196 to 197 °C; to `CCC1(C)CCN(C(=O)CN(C(=O)CNC(=O)Nc2cccc(C)c2)c2ccccc2)CC1`, 204 °C.
With `N#CNc1cccc2ccccc12`, the melting point was in the range of 132 to 133 °C.
Regarding `CCc1c(CCN2CCC(c3nsc4cc(F)ccc34)CC2)sc2c1CCN(C(C)=O)C2`, the melting point lay in the range of 156 to 160 °C.
To `CN(C)c1cnn(-c2ccccc2)c(=O)c1N` belongs 188 to 189 °C; to `Cc1ccc2c(c1)[C@@]1(C)Cc3ccccc3[C@@]1(C)N2` (relative stereo), 208 to 212 °C; to `Cc1cc(C2(C(F)(F)F)CN=C(c3ccc(Cl)cc3)S2)ccc1NC(=O)c1cccc(I)c1C(=O)NC(C)C` (stereo not given), 121 to 123 °C.
The molecule `Cn1nc(N)c2c(-c3ccccc3)cc(N3CCOCC3)nc21` had a melting point of 149 to 152 °C.
As for `Nc1ccc(-c2ccccc2)cc1[N+](=O)[O-]`, the melting point was in the range of 163 to 165 °C.
`COCCC1(C(=O)N[C@@H](Cc2ccc(NC(=O)c3cc(C#N)ccc3Cl)cc2)C(=O)O)CCCC1`: the melting point lay within 169 to 172 °C.
To `O=C(NCC1CC1)N1CC(Oc2cccc(C(F)(F)F)c2)C1` belongs 132 to 133 °C; to `C=CCC(C(=O)N1C(=O)OCC1Cc1ccccc1)c1ccc(F)cc1` (stereo not given), 103 to 104 °C; to `CCCCOc1c(CNC(=O)OC(C)(C)C)n(CC(C)C)c(=O)c2ccc(-c3noc(C)n3)cc12`, 152 °C.
The value for `CC(C)=CCN1CCc2c(sc(N)c2C(=O)c2ccc(Cl)cc2)C1` was 118 to 120 °C; that for `CCC(C)C(Cl)C(=O)Oc1ccc(C(=O)O)cc1` (stereo not given) was 97 to 100 °C.
To `Nc1c([N+](=O)[O-])cc(Br)c2c1CCN(Cc1ccc(C(F)(F)F)cc1)C2` belongs 131 to 133 °C; to `COC(=O)CNC(=O)c1ccc(Cl)c(Cl)c1`, 133 to 134 °C; to `O=C(O)Cc1ccc(OCCNC(=O)C2Cc3ccccc3N2S(=O)(=O)c2ccc(-c3cc(C(F)(F)F)ccc3Cl)cc2)cc1` (stereo not given), 84 °C.
`CCCCc1nc(O)cc(CCl)n1` displayed a melting point of 102 to 104 °C.
The value for `O=C(c1ccccc1)c1ccc(OCc2cccnc2)cc1O` was 88 to 90 °C.
Consider `O=C1CCC(N2Cc3c(OCc4ccc(Cc5nc6ccccc6[nH]5)cc4)cccc3C2=O)C(=O)N1` (stereo not given), for which the melting point lay in the range of 203 to 205 °C.
With `CCC1=C(c2cccc(C(F)(F)F)c2)n2ncc(C#N)c2N(C(=O)CCl)C1`, the melting point lay in the range of 150 to 152 °C.
The molecule `CC(=O)Nc1nc2ccnc(-c3cccc(NS(=O)(=O)c4ccc(C)cc4)c3)n2n1` displayed a melting point of 208 to 211 °C.
The molecule `COc1ccc(CCCN)cc1Cl` came in with a melting point of 55 to 56 °C.
The value for `COc1ccc(S(=O)(=O)N2C(=O)C(OC(=O)N3CCN(c4ccncc4)CC3)(c3ccccc3OC(C)C)c3cc(Cl)ccc32)c(OC)c1` (stereo not given) was 160 to 164 °C; that for `O=c1[nH]c(Nc2ccccc2)nc2c1ncn2CCCCO` was more than 350 °C; that for `O=C(NO)c1ccc2c(c1)CN(C(=O)c1ccc(-c3ccccc3)cc1)C2` was 160 to 190 °C.
The molecule `COc1cccc2c1SCC(=O)C2` returned a melting point of 60 °C.
To `Cc1c(-c2ccccc2)n(-c2c(F)cccc2F)c(-c2ccccc2)cc1=O` belongs 219 to 221 °C.
To `CC(C)(C)S(=O)(=O)c1cccc(-c2nc(=O)c3ccccc3s2)n1` belongs 234 to 235 °C.
